Source: PubChem BioAssay AID1963974 (Molecular Pharmacology Branch, DTP, NCI, 2024)

Tested on: 648629-189-R-J1-PDC spheroids with HUVEC/MSC, viability
Assay: Anticancer human tumor 648629-189-R-J1-PDC patient-derived bladder carcinoma cell line growth inhibition [PI3K]
Conditions: for viability, T/C: stronger effect = lower value
Procedure, shortened: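 Viability of mixed-cell spheroids was determined after exposure to pairwise combinations, one partner being inavolisib, alpelisib, duvelisib or copanlisib. Highest tested concentration matched clinical Cmax where known and 10 microM where not, descending in half-log steps.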

[1] = curve of first compound, second compound 0.00316 µM
[2] = curve of first compound, second compound 0.01 µM
[3] = curve of first compound, second compound 0.0316 µM
[4] = curve of first compound, second compound 0.1 µM
[5] = curve of first compound, second compound 0.316 µM
[6] = curve of first compound, second compound 1 µM
[7] = second compound 0.00316 µM, first compound 0.0316 µM
[8] = second compound 0.00316 µM, first compound 0.1 µM
[9] = second compound 0.01 µM, first compound 0.0316 µM
[10] = second compound 0.01 µM, first compound 0.1 µM
[11] = second compound 0.0316 µM, first compound 0.0316 µM
[12] = second compound 0.0316 µM, first compound 0.1 µM
[13] = second compound 0.1 µM, first compound 0.0316 µM
[14] = second compound 0.1 µM, first compound 0.1 µM
[15] = second compound 0.316 µM, first compound 0.0316 µM
[16] = second compound 0.316 µM, first compound 0.1 µM
[17] = second compound 1 µM, first compound 0.0316 µM
[18] = second compound 1 µM, first compound 0.1 µM
[19] = second compound 0.00316 µM, first compound 0.316 µM
[20] = second compound 0.00316 µM, first compound 1 µM
[21] = second compound 0.00316 µM, first compound 3.16 µM
[22] = second compound 0.00316 µM, first compound 10 µM
[23] = second compound 0.01 µM, first compound 0.316 µM
[24] = second compound 0.01 µM, first compound 1 µM
[25] = second compound 0.01 µM, first compound 3.16 µM
[26] = second compound 0.01 µM, first compound 10 µM
[27] = second compound 0.0316 µM, first compound 0.316 µM
[28] = second compound 0.0316 µM, first compound 1 µM
[29] = second compound 0.0316 µM, first compound 3.16 µM
[30] = second compound 0.0316 µM, first compound 10 µM
[31] = second compound 0.1 µM, first compound 0.316 µM
[32] = second compound 0.1 µM, first compound 1 µM
[33] = second compound 0.1 µM, first compound 3.16 µM
[34] = second compound 0.1 µM, first compound 10 µM
[35] = second compound 0.316 µM, first compound 0.316 µM
[36] = second compound 0.316 µM, first compound 1 µM
[37] = second compound 0.316 µM, first compound 3.16 µM
[38] = second compound 0.316 µM, first compound 10 µM
[39] = second compound 1 µM, first compound 0.316 µM
[40] = second compound 1 µM, first compound 1 µM
[41] = second compound 1 µM, first compound 3.16 µM
[42] = second compound 1 µM, first compound 10 µM
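Also: spheroids exposed to agents for seven days before reading.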
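For viability, T/C in this document: percent of vehicle control luminescence where 100% = DMSO treated spheroids.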

Compound: Cn1ncnc1[C@H]1c2n[nH]c(=O)c3cc(F)cc(c23)N[C@@H]1c1ccc(F)cc1 + CC(Nc1ccc2c(c1)OCCn1cc(N3C(=O)OCC3C(F)F)nc1-2)C(N)=O
- IC50 [1]: > 0.1 µM
- IC50 [2]: > 0.1 µM
- IC50 [3]: > 0.1 µM
- IC50 [4]: > 0.1 µM
- IC50 [5]: > 0.1 µM
- IC50 [6]: 0.0683 µM
- viability, T/C (second compound 0.00316 µM, first compound 0.000316 µM): 108%
- viability, T/C (second compound 0.00316 µM, first compound 0.001 µM): 110%
- viability, T/C (second compound 0.00316 µM, first compound 0.00316 µM): 102%
- viability, T/C (second compound 0.00316 µM, first compound 0.01 µM): 83.5%
- viability, T/C [7]: 75.6%
- viability, T/C [8]: 63.8%
- viability, T/C (second compound 0.01 µM, first compound 0.000316 µM): 115%
- viability, T/C (second compound 0.01 µM, first compound 0.001 µM): 106%
- viability, T/C (second compound 0.01 µM, first compound 0.00316 µM): 97.3%
- viability, T/C (second compound 0.01 µM, first compound 0.01 µM): 86.4%
- viability, T/C [9]: 69.4%
- viability, T/C [10]: 62%
- viability, T/C (second compound 0.0316 µM, first compound 0.000316 µM): 101%
- viability, T/C (second compound 0.0316 µM, first compound 0.001 µM): 99.2%
- viability, T/C (second compound 0.0316 µM, first compound 0.00316 µM): 96%
- viability, T/C (second compound 0.0316 µM, first compound 0.01 µM): 79.2%
- viability, T/C [11]: 82%
- viability, T/C [12]: 61.7%
- viability, T/C (second compound 0.1 µM, first compound 0.000316 µM): 97.8%
- viability, T/C (second compound 0.1 µM, first compound 0.001 µM): 93.4%
- viability, T/C (second compound 0.1 µM, first compound 0.00316 µM): 105%
- viability, T/C (second compound 0.1 µM, first compound 0.01 µM): 77.5%
- viability, T/C [13]: 70.2%
- viability, T/C [14]: 55.3%
- viability, T/C (second compound 0.316 µM, first compound 0.000316 µM): 76%
- viability, T/C (second compound 0.316 µM, first compound 0.001 µM): 86.7%
- viability, T/C (second compound 0.316 µM, first compound 0.00316 µM): 73.3%
- viability, T/C (second compound 0.316 µM, first compound 0.01 µM): 69.7%
- viability, T/C [15]: 60.9%
- viability, T/C [16]: 55.5%
- viability, T/C (second compound 1 µM, first compound 0.000316 µM): 69.5%
- viability, T/C (second compound 1 µM, first compound 0.001 µM): 60.5%
- viability, T/C (second compound 1 µM, first compound 0.00316 µM): 69.2%
- viability, T/C (second compound 1 µM, first compound 0.01 µM): 66%
- viability, T/C [17]: 61%
- viability, T/C [18]: 44.4%

Compound: CCCS(=O)(=O)Nc1ccc(F)c(C(=O)c2c[nH]c3ncc(-c4ccc(Cl)cc4)cc23)c1F + CC(Nc1ccc2c(c1)OCCn1cc(N3C(=O)OCC3C(F)F)nc1-2)C(N)=O
- IC50 [1]: 5.19 µM
- IC50 [2]: 5.51 µM
- IC50 [3]: 4.72 µM
- IC50 [4]: 4.82 µM
- IC50 [5]: 4.48 µM
- IC50 [6]: 3.55 µM
- viability, T/C [7]: 108%
- viability, T/C [8]: 105%
- viability, T/C [19]: 105%
- viability, T/C [20]: 106%
- viability, T/C [21]: 87.5%
- viability, T/C [22]: 0.36%
- viability, T/C [9]: 112%
- viability, T/C [10]: 91%
- viability, T/C [23]: 109%
- viability, T/C [24]: 129%
- viability, T/C [25]: 96.5%
- viability, T/C [26]: 0.28%
- viability, T/C [11]: 104%
- viability, T/C [12]: 111%
- viability, T/C [27]: 93.3%
- viability, T/C [28]: 112%
- viability, T/C [29]: 76.5%
- viability, T/C [30]: 0.32%
- viability, T/C [13]: 98.3%
- viability, T/C [14]: 92.3%
- viability, T/C [31]: 97.9%
- viability, T/C [32]: 98.9%
- viability, T/C [33]: 77.3%
- viability, T/C [34]: 2.36%
- viability, T/C [15]: 94.5%
- viability, T/C [16]: 83.4%
- viability, T/C [35]: 88.1%
- viability, T/C [36]: 84.5%
- viability, T/C [37]: 71.9%
- viability, T/C [38]: 0.44%
- viability, T/C [17]: 63.8%
- viability, T/C [18]: 60.6%
- viability, T/C [39]: 65.8%
- viability, T/C [40]: 64.9%
- viability, T/C [41]: 55.2%
- viability, T/C [42]: 0.54%

Compound: CC(Nc1ccc2c(c1)OCCn1cc(N3C(=O)OCC3C(F)F)nc1-2)C(N)=O (stereo not drawn)
- viability, T/C (compound 0.00316 µM): 104% [middle of 8 runs]
- viability, T/C (compound 0.01 µM): 99.7% [middle of 8 runs]
- viability, T/C (compound 0.0316 µM): 106% [middle of 8 runs]
- viability, T/C (compound 0.1 µM): 95.2% [middle of 8 runs]
- viability, T/C (compound 0.316 µM): 81.1% [middle of 8 runs]
- viability, T/C (compound 1 µM): 73.8% [middle of 8 runs]
- IC50 (compound alone, run of 04/24/2023): > 1 µM

Compound: CC1(C)CCC(CN2CCN(c3ccc(C(=O)NS(=O)(=O)c4ccc(NCC5CCOCC5)c([N+](=O)[O-])c4)c(Oc4cnc5[nH]ccc5c4)c3)CC2)=C(c2ccc(Cl)cc2)C1 + CC(Nc1ccc2c(c1)OCCn1cc(N3C(=O)OCC3C(F)F)nc1-2)C(N)=O
- IC50 [1]: 4.77 µM
- IC50 [2]: 4.84 µM
- IC50 [3]: 4.55 µM
- IC50 [4]: 5.28 µM
- IC50 [5]: 4.45 µM
- IC50 [6]: 4.34 µM
- viability, T/C [7]: 101%
- viability, T/C [8]: 90.9%
- viability, T/C [19]: 92.9%
- viability, T/C [20]: 80.7%
- viability, T/C [21]: 76.7%
- viability, T/C [22]: 8.54%
- viability, T/C [9]: 122%
- viability, T/C [10]: 88.3%
- viability, T/C [23]: 106%
- viability, T/C [24]: 86%
- viability, T/C [25]: 80.7%
- viability, T/C [26]: 7.49%
- viability, T/C [11]: 110%
- viability, T/C [12]: 102%
- viability, T/C [27]: 98.2%
- viability, T/C [28]: 89.5%
- viability, T/C [29]: 71.3%
- viability, T/C [30]: 9.16%
- viability, T/C [13]: 84.5%
- viability, T/C [14]: 99.8%
- viability, T/C [31]: 90.5%
- viability, T/C [32]: 95.6%
- viability, T/C [33]: 83.8%
- viability, T/C [34]: 7.86%
- viability, T/C [15]: 74.7%
- viability, T/C [16]: 76%
- viability, T/C [35]: 79.4%
- viability, T/C [36]: 77.6%
- viability, T/C [37]: 67.5%
- viability, T/C [38]: 7.9%
- viability, T/C [17]: 74.2%
- viability, T/C [18]: 63.4%
- viability, T/C [39]: 62.5%
- viability, T/C [40]: 67.3%
- viability, T/C [41]: 65.7%
- viability, T/C [42]: 8.61%
